3 compounds from patent US20250302833A1, “PHARMACEUTICAL COMPOSITION FOR TREATING OR PREVENTING CYSTIC DISEASE” (CHUGAI SEIYAKU KABUSHIKI KAISHA, priority 2022, published 2025) can be followed below.

A word on the inhibition: it is the share of the control response that was lost under treatment. In general, IC50 refers to the point on the concentration scale where inhibition reaches its midpoint.

Assay type in all cases: cell-based
Test [1] deals with primary cells from kidney tissues of human ADPKD patients. Nature of the test: Inhibition of three-dimensional cyst formation using primary cells from kidney tissue of human ADPKD patient. The note with it: 168 h, test compound 30 μM, forskolin + ITS stimulation, 7 days 3D culture, average N=3, read-out: Inhibition rate (%) of cyst formation. How it is done: Primary cells were isolated from kidney tissues of human ADPKD patients. Under two-dimensions, the isolated cells were cultured for 2 days using DMEM/F-12 (Thermo Fisher Scientific, Inc.) supplemented with 10% FBS. Subsequently, three-dimensional culture was performed for 7 days using 3D Ready Atelocollagen (KOKEN CO., LTD.). During three-dimensional culture, 50 µM forskolin (Sigma-Aldrich Co. LLC) and ITS liquid media supplements (Sigma-Aldrich Co. LLC) were added as stimulating agents to some of the wells to form cysts, and a test compound was added at the final concentration of 30 μM. The test compound was also added to other wells at the final concentration of 30 μM. After 7 days of three-dimensional culture, it was fixed with 4% paraformaldehyde (Thermo Fisher Scientific, Inc.), and nucleic acid staining and cell membrane staining were performed with Hoechst 33342 (Thermo Fisher Scientific, Inc.) and CellLight Plasma Membrane-RFP, BacMam 2.0 (Thermo Fisher Scientific, Inc.). Three-dimensional imaging and volume analysis were performed using Operetta CLS and image analysis software Harmony (PerkinElmer Japan G.K.). The inhibition rate was determined by the following formula.

The next test deals with T1, human NaPi-IIb (Homo sapiens, UniProt O95436).
T1 construct: expressed in transfected cells; host or cells: CHO cells, transient transfection with Fugene HD
T1 sequence (O95436 1-690): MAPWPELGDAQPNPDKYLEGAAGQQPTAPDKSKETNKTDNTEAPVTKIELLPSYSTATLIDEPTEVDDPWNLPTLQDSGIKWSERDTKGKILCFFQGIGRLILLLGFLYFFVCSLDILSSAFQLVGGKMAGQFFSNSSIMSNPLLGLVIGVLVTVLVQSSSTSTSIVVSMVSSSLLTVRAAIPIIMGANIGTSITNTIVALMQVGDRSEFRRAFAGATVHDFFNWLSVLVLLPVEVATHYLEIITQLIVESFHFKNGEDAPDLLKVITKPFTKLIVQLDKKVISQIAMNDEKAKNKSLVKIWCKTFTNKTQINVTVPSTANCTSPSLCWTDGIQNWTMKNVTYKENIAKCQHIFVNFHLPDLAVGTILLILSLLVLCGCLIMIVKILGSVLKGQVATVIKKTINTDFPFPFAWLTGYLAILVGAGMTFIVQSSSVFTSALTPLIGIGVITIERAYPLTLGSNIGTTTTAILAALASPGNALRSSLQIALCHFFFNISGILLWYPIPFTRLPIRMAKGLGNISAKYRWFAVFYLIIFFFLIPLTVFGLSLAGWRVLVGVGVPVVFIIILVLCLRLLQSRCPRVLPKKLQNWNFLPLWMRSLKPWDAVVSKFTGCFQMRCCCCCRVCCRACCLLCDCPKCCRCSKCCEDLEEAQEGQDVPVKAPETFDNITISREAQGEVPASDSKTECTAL
In words: 33PO4 uptake inhibition in CHO cells expressing human NaPi-IIb. The note with it: CHO cells transiently expressing human NaPi-IIb, pH 6.5. As for the experimental part:
For transient expression, human NaPi-IIb expression plasmids, human PiT1 expression plasmids, human PiT2 expression plasmids, and Fugene HD Transfection (Promega Corporation) were added to CHO cells using a 96-well plate, and the plate was incubated in a C02 incubator for 16 hours. The medium was replaced with buffer A (145 mM choline chloride, 3 mM KCl, 1 mM CaCl2), 0.5 mM MgCl2, 5 mM glucose, 5 mM MES, (pH 6.5)), and then replaced with buffer B (145 mM NaCl, 3 mM KCl, 1 mM CaCl2, 0.5 mM MgCl2, 5 mM glucose, 5 mM MES (pH 6.5)) to which a test compound was added at the final concentration of 0.01, 0.03, 0.1, 0.3, 1, 3, 10, or 30 μM, buffer A to which DMSO was added, or buffer B to which DMSO was added. After a certain time, a 1/20 amount of buffer A containing ^33PO4 (PerkinElmer Japan G. K.) was added and reacted at room temperature. After washing with ice-cooled buffer A, a liquid scintillator (MicroScint™-20, item number 6013621, PerkinElmer Japan G.K.) was added, and the ^33PO4 uptake amount was measured with the top count (Top Count NXT, PerkinElmer Japan G.K.). The inhibition rate was determined by the following formula. Here, a certain time was set to 10 minutes. The phrase “a 1/20 amount of buffer A containing ^33PO4 (PerkinElmer Japan G.K.) was added” refers to “buffer A containing ^33PO4 (PerkinElmer Japan G.K.) was added in an amount of 1/20 of the amount of solution filling the medium”.
The 50% ^33PO4-uptake inhibition concentrations (ICs) (UM) in a cell expressing human NaPi-Ilb, human PiT1, and human PiT2 were calculated from a straight line through two points sandwiching 50% inhibition rate. It should be noted that compounds 1 and 2 were not measured for baman PiT1 and human PiT2, which was indicated as “-” in Table 1.

Another test deals with T2, human PiT2 (Homo sapiens, UniProt Q08357).
T2 construct: expressed in transfected cells; host or cells: CHO cells, transient transfection with Fugene HD
T2 sequence (Q08357 1-652): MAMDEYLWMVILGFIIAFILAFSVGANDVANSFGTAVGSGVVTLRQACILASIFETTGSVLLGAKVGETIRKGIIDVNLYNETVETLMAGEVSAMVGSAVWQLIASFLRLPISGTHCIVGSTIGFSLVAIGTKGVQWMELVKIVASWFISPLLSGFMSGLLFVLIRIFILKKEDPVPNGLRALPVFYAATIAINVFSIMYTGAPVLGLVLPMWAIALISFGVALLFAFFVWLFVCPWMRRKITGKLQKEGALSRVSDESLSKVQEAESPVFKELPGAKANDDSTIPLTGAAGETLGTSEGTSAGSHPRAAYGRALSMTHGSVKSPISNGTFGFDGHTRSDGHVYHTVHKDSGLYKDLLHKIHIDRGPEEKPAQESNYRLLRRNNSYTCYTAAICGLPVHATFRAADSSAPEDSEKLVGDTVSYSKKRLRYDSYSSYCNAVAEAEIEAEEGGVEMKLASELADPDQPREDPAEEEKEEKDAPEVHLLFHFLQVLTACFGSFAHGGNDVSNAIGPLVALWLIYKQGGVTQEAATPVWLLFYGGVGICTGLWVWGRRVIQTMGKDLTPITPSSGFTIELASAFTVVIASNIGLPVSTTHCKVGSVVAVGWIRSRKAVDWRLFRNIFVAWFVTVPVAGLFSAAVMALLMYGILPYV
Nature of the test: 33PO4 uptake inhibition in CHO cells expressing human PiT2. The note with it: CHO cells transiently expressing human PiT2, pH 6.5. How it is done:
(§1) For transient expression, human NaPi-IIb expression plasmids, human PiT1 expression plasmids, human PiT2 expression plasmids, and Fugene HD Transfection (Promega Corporation) were added to CHO cells using a 96-well plate, and the plate was incubated in a C02 incubator for 16 hours. The medium was replaced with buffer A (145 mM choline chloride, 3 mM KCl, 1 mM CaCl2), 0.5 mM MgCl2, 5 mM glucose, 5 mM MES, (pH 6.5)), and then replaced with buffer B (145 mM NaCl, 3 mM KCl, 1 mM CaCl2, 0.5 mM MgCl2, 5 mM glucose, 5 mM MES (pH 6.5)) to which a test compound was added at the final concentration of 0.01, 0.03, 0.1, 0.3, 1, 3, 10, or 30 μM, buffer A to which DMSO was added, or buffer B to which DMSO was added. After a certain time, a 1/20 amount of buffer A containing ^33PO4 (PerkinElmer Japan G. K.) was added and reacted at room temperature. After washing with ice-cooled buffer A, a liquid scintillator (MicroScint™-20, item number 6013621, PerkinElmer Japan G.K.) was added, and the ^33PO4 uptake amount was measured with the top count (Top Count NXT, PerkinElmer Japan G.K.). The inhibition rate was determined by the following formula. Here, a certain time was set to 10 minutes. […]

Another test has as its target T3, human PiT1 (Homo sapiens, UniProt Q8WUM9).
T3 construct: expressed in transfected cells; host or cells: CHO cells, transient transfection with Fugene HD
T3 sequence (Q8WUM9 1-679): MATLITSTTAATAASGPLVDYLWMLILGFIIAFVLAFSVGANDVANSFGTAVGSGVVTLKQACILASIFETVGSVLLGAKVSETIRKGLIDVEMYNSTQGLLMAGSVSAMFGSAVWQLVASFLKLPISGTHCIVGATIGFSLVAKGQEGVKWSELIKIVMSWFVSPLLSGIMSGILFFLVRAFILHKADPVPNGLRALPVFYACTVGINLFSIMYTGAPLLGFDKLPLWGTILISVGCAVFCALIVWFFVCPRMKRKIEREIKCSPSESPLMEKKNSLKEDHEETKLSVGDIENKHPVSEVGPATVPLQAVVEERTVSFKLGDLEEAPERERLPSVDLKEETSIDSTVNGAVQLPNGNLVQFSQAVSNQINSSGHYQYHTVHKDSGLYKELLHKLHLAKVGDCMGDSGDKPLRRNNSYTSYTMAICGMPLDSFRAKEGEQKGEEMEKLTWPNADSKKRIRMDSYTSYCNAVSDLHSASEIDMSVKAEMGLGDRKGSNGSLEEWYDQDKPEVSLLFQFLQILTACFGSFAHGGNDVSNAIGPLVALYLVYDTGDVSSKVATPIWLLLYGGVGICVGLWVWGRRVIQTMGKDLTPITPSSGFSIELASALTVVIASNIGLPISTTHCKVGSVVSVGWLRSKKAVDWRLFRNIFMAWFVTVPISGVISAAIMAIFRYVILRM
Nature of the test: 33PO4 uptake inhibition in CHO cells expressing human PiT1. The note with it: CHO cells transiently expressing human PiT1, pH 6.5. As for the experimental part:
as §1

As for `O=c1[nH]nc(Sc2ccc(C(F)(F)F)cn2)n1-c1cc(Cl)c(Cl)cc1C(F)(F)F` [Compound 1, 4-[4,5-Dichloro-2-(trifluoromethyl)phenyl]-3-[5-(trifluoromethyl)pyridin-2-yl]sulfanyl-1H-1,2,4-triazol-5-one], the inhibition at 30 µM in test [1] was found to be 98.2%. The same compound yielded an IC50 on human NaPi-IIb of 7.9 µM.
Regarding `C[C@]12CCCN1N(Cc1cccc(Cl)c1F)C(=O)C(C(=O)Nc1cc(F)c(Br)c(F)c1)=C2O` [Compound 2, (4aR)-N-(4-Bromo-3,5-difluorophenyl)-1-[(3-chloro-2-fluorophenyl)methyl]-4-hydroxy-4a-methyl-2-oxo-6,7-dihydro-5H-pyrrolo[1,2-b]pyridazine-3-carboxamide], in test [1], the inhibition at 30 µM is 100%. Further, the half-inhibitory concentration (IC50) at human NaPi-IIb came out at 2.9 µM.
With `O=C(Nc1ccc(Cl)cc1C(=O)c1cnn(-c2ccc(Cl)c(C(F)(F)F)c2)c1)c1cccc(CN2CCC(N3CCCCC3)CC2)c1` [Compound 3, N-[4-Chloro-2-[1-[4-chloro-3-(trifluoromethyl)phenyl]pyra-zole-4-carbonyl]phenyl]-3-[(4-piperidin-1-ylpiperidin-1-yl)methyl]benzamide], in test [1], the inhibition at 30 µM amounted to 100%. Also, the concentration for half-maximal inhibition (IC50) is 3.8 µM against human NaPi-IIb, above 30 µM on human PiT2 and above 30 µM on human PiT1.
